Data reported in US7417025B2, “Use of poly-α2,8-sialic acid mimetic peptides to modulate NCAM functions” (Centre National de la Recherche Scientifique, priority 2002, dated 2008).

Experiments:
[1] = test system: subventricular zone explants (neuronal precursors); assay: Subventricular zone (SVZ) explant culture: cell migration in vitro; assay type: cell-based, mouse; conditions: for Rate of migration of the neuronal precursors compared to the corresponding control peptide: FIG. 7, controls reverse p65 and p22
Description: Cultures of SVZ explants were performed as described in Chazal et al., precited. Briefly, 1-day-old mice were killed by rapid decapitation. Brains were dissected out and sectionned by Vibratome (Leica). The SVZ from the lateral wall of the anterior lateral ventricle horn was dissected out in HBSS medium (LIFE TECHNOLOGIES) and cut into 200-300 μm diameter explants. The explants were mixed with Matrigel (BECKTON DICKINSON) and cultured in four-well dishes. After polymerisation, the gel was overlaid with 400 μl of serum-free medium containing B-27 supplement (LIFE TECHNOLOGIES), in the presence or the absence of 40 μM of peptides (p65, p66, reverse p65, p21 or p22) and 70 U of Endo N per milliliter.
After 48 h in culture, explants were examining directly (SVZ) or after overnight fixation with a 4% paraformaldehyde solution in PBS and immunostaining (DRGs). Observation was done using 2, 5×, 5×, 10× and 32× objectives (Axiovert 35M, ZEISS). Images were collected with a video camera (Cool View, PHOTONIC SCIENCE) and analysed using image-processing software (Visiolab1000, BIOCOM). Mean migration distance (calculated on five different experiments, including at least five explants per condition) or mean length of the longest neurite (calculated on two different experiments, including at least eight explants per condition), was the distance in micrometers between the explant edge and the border of the cell migration front. Four measurements were performed for each explant. The significance of the differences between the control and the different experimental conditions was calculated by Student's t test.

mAb 735 = assay: Competitive ELISA of biotinylated peptide-BSA conjugates on anti-PSA mAb; assay type: binding; conditions: for Binding of peptide to mAb 735 in competitive ELISA (percentage of binding): biotinylated peptide-BSA conjugate
Excerpt: • mAb 735 and 30H12 • MaxiSorp™ plates (NUNC) for coating the antibody: ELISA plates • microtiter plates (NUNC) for peptide dilution: dilution plates • Biotinylated peptide-BSA conjugates prepared as above described • Extravidin alkaline phosphatase-avidin conjugate (SIGMA E2636) • p-nitrophenyl-phosphatase alkaline substrate (SIGMA 104-105) 2.1.2) Buffers • PBS pH 7.4 • Blocking solution: 0.5% BSA in PBS • TBS • TBST: TBS containing 0.05% Tween 20 • Extravidin alkaline phosphatase-avidin conjugate solution: 1/5000 in TBST • Alkaline phosphatase substrate solution; 1 tablet in 5 ml 50 mM NaHCO3, 1 mM MgCl2 solution, […]) Method
(§1) Maxisorp™ plate wells were coated with 100 μl mAb solution (25 μg/ml) for 2 h at room temperature. The control wells of the ELISA plates were only coated with the blocking solution. In parallel, the peptide-BSA conjugate dilution plates were blocked with 200 μl blocking solution for 2 h. The antibody coated wells and the control wells were blocked with 200 μl blocking solution for 1 h. In parallel the peptide-BSA conjugate dilution plates were washed 6 times with TBST and 120 μl TBST was added to the wells. An appropriate volume of peptide-BSA conjugate solution was added to the first well and the volume adjusted to 140 μl with TBST. The peptide-BSA conjugate in well one was diluted in the ratio 1/7 by taking 20 μl out of the first well and transferring into the second also to achieve the total volume of 140 μl. This was repeated for the remaining wells. The peptide-BSA conjugate dilutions for the control wells were done the same way. The blocked ELISA plates were washed 6 times with TBST and the peptide-BSA conjugate dilutions or 100 μl of the mixed competitor solution was added to the wells. After incubation for 1 h, the wells were washed 10 times with TBST and 100 μl of the alkaline phosphatase substrate solution was added to the wells. The plates were read out after 10 to 60 min using a microplate reader at 405 nm.
(§2) The specificity of peptide p21 (SEQ ID NO: 1) was investigated in a competition ELISA using biotinylated p21-BSA conjugate and a randomized variant of p21 (p22) conjugate as a control. The results presented in Tables X and XI are expressed as percentage of binding by comparison with peptide p21 at the highest concentration (9.45 10^-5 M) which corresponds to 100% binding.

BSA = BSA (Bos taurus, UniProt P02769); assay: Peptide-BSA conjugate ELISA, control wells coated only with blocking solution (BSA); assay type: binding; conditions: biotinylated peptide-BSA conjugate, BSA-blocked wells, no mAb
Chain of BSA (P02769 25-607): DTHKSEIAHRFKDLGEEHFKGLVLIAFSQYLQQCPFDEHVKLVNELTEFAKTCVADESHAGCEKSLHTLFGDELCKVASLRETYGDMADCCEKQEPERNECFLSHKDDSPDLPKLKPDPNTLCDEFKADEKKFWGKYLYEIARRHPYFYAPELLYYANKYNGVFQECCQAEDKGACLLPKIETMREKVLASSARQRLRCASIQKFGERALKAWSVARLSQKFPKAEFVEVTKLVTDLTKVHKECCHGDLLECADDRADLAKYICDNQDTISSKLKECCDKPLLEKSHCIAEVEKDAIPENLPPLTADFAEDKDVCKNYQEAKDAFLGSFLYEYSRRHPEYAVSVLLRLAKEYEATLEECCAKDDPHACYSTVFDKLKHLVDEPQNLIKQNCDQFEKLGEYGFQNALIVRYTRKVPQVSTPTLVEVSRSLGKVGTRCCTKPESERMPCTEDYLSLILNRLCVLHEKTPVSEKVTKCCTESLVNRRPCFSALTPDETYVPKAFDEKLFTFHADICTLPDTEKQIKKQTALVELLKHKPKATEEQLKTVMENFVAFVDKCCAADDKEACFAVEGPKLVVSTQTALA
Excerpt: • mAb 735 and 30H12 • MaxiSorp™ plates (NUNC) for coating the antibody: ELISA plates • microtiter plates (NUNC) for peptide dilution: dilution plates • Biotinylated peptide-BSA conjugates prepared as above described • Extravidin alkaline phosphatase-avidin conjugate (SIGMA E2636) • p-nitrophenyl-phosphatase alkaline substrate (SIGMA 104-105) 2.1.2) Buffers • PBS pH 7.4 • Blocking solution: 0.5% BSA in PBS • TBS • TBST: TBS containing 0.05% Tween 20 • Extravidin alkaline phosphatase-avidin conjugate solution: 1/5000 in TBST • Alkaline phosphatase substrate solution; 1 tablet in 5 ml 50 mM NaHCO3, 1 mM MgCl2 solution, pH 9.6. • mixed competitor solution: 1 mM colominic acid with a peptide-BSA conjugate gradient in TBST 2.1.3) Method
as §1, §2

[2] = peptide-BSA conjugate, in words

For DSPLVPFIDFHP [p21], the “Rate of migration of the neuronal precursors compared to the corresponding control peptide” value [1] was “significant decrease”, the “Binding of peptide to mAb 735 in competitive ELISA (percentage of binding)” value (mAb 735; peptide 1.62 10^−9 M, + chondroitin sulfate C) was 50 ± 1% and the “Binding of peptide to mAb 735 in competitive ELISA (percentage of binding)” value (mAb 735; peptide 1.62 10^−9 M, + colominic acid 1 mM) was 0 ± 1%. For the same sequence, the “Binding of peptide to mAb 735 in competitive ELISA (percentage of binding)” value (mAb 735; peptide 1.62 10^−9 M, no competitor) was 56 ± 4%, the “Binding of peptide to mAb 735 in competitive ELISA (percentage of binding)” value (mAb 735; peptide 1.67 10^−5 M, + chondroitin sulfate C) was 99 ± 4% and the “Binding of peptide to mAb 735 in competitive ELISA (percentage of binding)” value (mAb 735; peptide 1.67 10^−5 M, + colominic acid 1 mM) was 34 ± 3%. For the same sequence, the “Binding of peptide to mAb 735 in competitive ELISA (percentage of binding)” value (mAb 735; peptide 1.67 10^−5 M, no competitor) was 93 ± 10%, the “Binding of peptide to mAb 735 in competitive ELISA (percentage of binding)” value (mAb 735; peptide 2.86 10^−9 M, + chondroitin sulfate C) was 11 ± 2% and the “Binding of peptide to mAb 735 in competitive ELISA (percentage of binding)” value (mAb 735; peptide 2.86 10^−9 M, + colominic acid 1 mM) was 0 ± 0%. For the same sequence, the “Binding of peptide to mAb 735 in competitive ELISA (percentage of binding)” value (mAb 735; peptide 2.86 10^−9 M, no competitor) was 13 ± 1%, the “Binding of peptide to mAb 735 in competitive ELISA (percentage of binding)” value (mAb 735; peptide 2.94 10^−6 M, + chondroitin sulfate C) was 99 ± 8% and the “Binding of peptide to mAb 735 in competitive ELISA (percentage of binding)” value (mAb 735; peptide 2.94 10^−6 M, + colominic acid 1 mM) was 23 ± 1%. For the same sequence, the “Binding of peptide to mAb 735 in competitive ELISA (percentage of binding)” value (mAb 735; peptide 2.94 10^−6 M, no competitor) was 95 ± 1%, the “Binding of peptide to mAb 735 in competitive ELISA (percentage of binding)” value (mAb 735; peptide 5.04 10^−10 M, + chondroitin sulfate C) was 3 ± 0% and the “Binding of peptide to mAb 735 in competitive ELISA (percentage of binding)” value (mAb 735; peptide 5.04 10^−10 M, + colominic acid 1 mM) was 0 ± 0%. For the same sequence, the “Binding of peptide to mAb 735 in competitive ELISA (percentage of binding)” value (mAb 735; peptide 5.04 10^−10 M, no competitor) was 2 ± 0%, the “Binding of peptide to mAb 735 in competitive ELISA (percentage of binding)” value (mAb 735; peptide 5.20 10^−7 M, + chondroitin sulfate C) was 94 ± 7% and the “Binding of peptide to mAb 735 in competitive ELISA (percentage of binding)” value (mAb 735; peptide 5.20 10^−7 M, + colominic acid 1 mM) was 15 ± 3%. For the same sequence, the “Binding of peptide to mAb 735 in competitive ELISA (percentage of binding)” value (mAb 735; peptide 5.20 10^−7 M, no competitor) was 91 ± 2%, the “Binding of peptide to mAb 735 in competitive ELISA (percentage of binding)” value (mAb 735; peptide 8.89 10^−11 M, + chondroitin sulfate C) was 2 ± 0% and the “Binding of peptide to mAb 735 in competitive ELISA (percentage of binding)” value (mAb 735; peptide 8.89 10^−11 M, + colominic acid 1 mM) was 0 ± 0%. For the same sequence, the “Binding of peptide to mAb 735 in competitive ELISA (percentage of binding)” value (mAb 735; peptide 8.89 10^−11 M, no competitor) was 0 ± 0%, the “Binding of peptide to mAb 735 in competitive ELISA (percentage of binding)” value (mAb 735; peptide 9.27 10^−8 M, + chondroitin sulfate C) was 92 ± 2% and the “Binding of peptide to mAb 735 in competitive ELISA (percentage of binding)” value (mAb 735; peptide 9.27 10^−8 M, + colominic acid 1 mM) was 5 ± 2%. The “Binding of peptide to mAb 735 in competitive ELISA (percentage of binding)” value (mAb 735; peptide 9.27 10^−8 M, no competitor) was 93 ± 9%, the “Binding of peptide to mAb 735 in competitive ELISA (percentage of binding)” value (mAb 735; peptide 9.45 10^−5 M, + chondroitin sulfate C) was 96 ± 8% and the “Binding of peptide to mAb 735 in competitive ELISA (percentage of binding)” value (mAb 735; peptide 9.45 10^−5 M, + colominic acid 1 mM) was 43 ± 3%. The “Binding of peptide to mAb 735 in competitive ELISA (percentage of binding)” value (mAb 735; peptide 9.45 10^−5 M, no competitor) was 100 ± 11%, the “Binding of peptide to mAb 735” value (mAb 735; [2]) was “binds specifically to mAb 735 in a concentration-dependent manner” and the “Effect of chondroitin sulfate C on peptide binding to mAb 735” value (mAb 735; [2]) was “no influence”. For the same sequence, the “Effect of colominic acid on peptide binding to mAb 735” value (mAb 735; [2]) was “clear inhibition”, the “Binding of peptide to BSA control wells (percentage of binding)” value (BSA; peptide 1.62 10^−9 M) was 0 ± 0% and the “Binding of peptide to BSA control wells (percentage of binding)” value (BSA; peptide 1.67 10^−5 M) was 1 ± 0%. For the same sequence, the “Binding of peptide to BSA control wells (percentage of binding)” value (BSA; peptide 2.86 10^−9 M) was 0 ± 0%, the “Binding of peptide to BSA control wells (percentage of binding)” value (BSA; peptide 2.94 10^−6 M) was 0 ± 0% and the “Binding of peptide to BSA control wells (percentage of binding)” value (BSA; peptide 5.04 10^−10 M) was 0 ± 0%. The “Binding of peptide to BSA control wells (percentage of binding)” value (BSA; peptide 5.20 10^−7 M) was 0 ± 0%, the “Binding of peptide to BSA control wells (percentage of binding)” value (BSA; peptide 8.89 10^−11 M) was 0 ± 0% and the “Binding of peptide to BSA control wells (percentage of binding)” value (BSA; peptide 9.27 10^−8 M) was 0 ± 0%. The “Binding of peptide to BSA control wells (percentage of binding)” value (BSA; peptide 9.45 10^−5 M) was 3 ± 1%.

CSSVTAWTTGCG [p65] was tested, and the “Rate of migration of the neuronal precursors compared to the corresponding control peptide” value [1] was “significant increase”, the “Rate of migration of the neuronal precursors and chain-like arrangement” value ([1]; SVZ explants in Matrigel, FIG. 4) was “increases the rate of migration” and the “Migration of precursors from NCAM −/− mice” value ([1]; SVZ explants of NCAM −/− mice, FIG. 6) was “did not reverse the impaired migration”. The “Concentration from which the optimal effect on cell migration is observed” value ([1]; dose-response curve) was ≥ 0.4 µM and the “PSA-dependence of the migration effect” value ([1]; with endo N treatment) was “abolished by endo N treatment”.
